The text below walks through data of ChEMBL document CHEMBL1201862, “PubChem BioAssay data set” (2004).

Test systems include 786-0; A498; ACHN; BT-549; CAKI-1; Hs-578T; K562; LOX IMVI; MCF7; NCI-H226; NCI-H460; NCI-H522; NCI/ADR-RES; OVCAR-4; SF-268; SF-295; SK-OV-3; SN12C; TK-10; U-251.
Test in all cases: NCI tumour cell line growth inhibition, 48 h

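Test compounds were applied to cells in 96-well plates for 48 hours at 5 doses. Here, GI50 denotes the concentration required for 50% inhibition of growth.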 The source made the active and inactive calls. No stated cut-off is given here; in the data, active = GI50 up to about 1.1 µM and inactive = higher.

As for `NC(CCC(=O)NC(CSCC1C(=O)Nc2ccccc21)C(=O)NCC(=O)O)C(=O)O` (stereo not given), the GI50 in the assay on 786-0 was 3.87 µM (inactive); in the assay with A498, 13.8 µM (inactive); in the assay with ACHN, 7.41 µM (inactive); with BT-549, 6.79 µM (inactive); in the assay with CAKI-1, 4.41 µM (inactive); in the assay with Hs-578T it was 48 µM (inactive). In addition, the GI50 in the assay with K562 was 1.6 µM (inactive); with LOX IMVI, 1.21 µM (inactive); in the assay with MCF7, 3.75 µM (inactive); in the assay on NCI-H226 it was 7.23 µM (inactive); in the assay on NCI-H460, 14.8 µM (inactive); in the assay on NCI-H522, 0.968 µM (active). Further, the GI50 in the assay with NCI/ADR-RES was 7.53 µM (inactive); in the assay on OVCAR-4 it was 8.41 µM (inactive); in the assay on SF-268, 5.92 µM (inactive); with SF-295, 15.5 µM (inactive); in the assay on SK-OV-3, 21 µM (inactive); in the assay on SN12C, 5.86 µM (inactive). The GI50 is 7.52 µM (inactive) in the assay on TK-10 and 7.62 µM (inactive) in the assay on U-251.
On to `O=C(CSc1nnc(-c2ccccn2)s1)N/N=C/c1ccccc1`, for which the GI50 with 786-0 was 76.9 µM (inactive); in the assay on A498, > 100 µM (inactive); with ACHN it was 89.3 µM (inactive); with BT-549 it was > 100 µM (inactive); in the assay on CAKI-1, > 100 µM (inactive); in the assay on Hs-578T, > 100 µM (inactive). The GI50 with K562, in the assay with LOX IMVI, with MCF7, with NCI-H226, with NCI-H460 and in the assay on NCI-H522 was > 100 µM (inactive) in each case. Moreover, the GI50 in the assay with NCI/ADR-RES was > 100 µM (inactive); in the assay on OVCAR-4 it was > 100 µM (inactive); in the assay with SF-268, 48.9 µM (inactive); in the assay with SF-295 it was > 100 µM (inactive); with SK-OV-3, > 100 µM (inactive); in the assay on SN12C it was > 100 µM (inactive). In addition, the GI50 is 89.1 µM (inactive) with TK-10 and 54.5 µM (inactive) in the assay with U-251.
For `COc1cccc(-c2cc(=O)c3ccc(C)nc3[nH]2)c1`, the GI50 in the assay on 786-0 was 0.0491 µM (active); in the assay with A498, 0.0405 µM (active); in the assay with ACHN, 0.0538 µM (active); with BT-549, 0.299 µM (active); in the assay on CAKI-1 it was 0.0458 µM (active); in the assay on Hs-578T it was 0.0687 µM (active). The GI50 in the assay on K562 is 0.0232 µM (active); with LOX IMVI it was 0.0596 µM (active); in the assay on MCF7 it was 0.165 µM (active); in the assay with NCI-H226 it was 0.0434 µM (active); with NCI-H460, 0.0451 µM (active); in the assay on NCI-H522 it was 0.0448 µM (active). For the same compound, the GI50 is 0.0594 µM (active) with NCI/ADR-RES; 3.78 µM (inactive) with OVCAR-4; 0.0671 µM (active) with SF-268; 0.0371 µM (active) with SF-295; 0.051 µM (active) with SK-OV-3; 0.122 µM (active) in the assay on SN12C. The GI50 was > 100 µM (inactive) in the assay on TK-10 and 0.0508 µM (active) in the assay with U-251.
